From PubChem BioAssay (NCI)
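Each compound was tested at five concentrations against cells in 96-well plates for 48 hours. GI50 is the concentration that inhibits growth by half. Definition used: TGI = concentration required for complete inhibition of growth.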

Experiments:
Experiment in all cases: NCI-60 cell line screen, 48 h
HL-60(TB) leukemia = tested on: HL-60(TB) leukemia
HT29 colon = tested on: HT29 colon
SF-539 CNS = tested on: SF-539 CNS
OVCAR-4 ovarian = tested on: OVCAR-4 ovarian
NCI-H522 lung = tested on: NCI-H522 lung
PC-3 prostate = tested on: PC-3 prostate
NCI/ADR-RES ovarian = tested on: NCI/ADR-RES ovarian
786-0 renal = tested on: 786-0 renal
HCT-116 colon = tested on: HCT-116 colon
SW-620 colon = tested on: SW-620 colon
T-47D breast = tested on: T-47D breast
IGROV1 ovarian = tested on: IGROV1 ovarian
HCT-15 colon = tested on: HCT-15 colon
U251 CNS = tested on: U251 CNS
SN12C renal = tested on: SN12C renal
OVCAR-3 ovarian = tested on: OVCAR-3 ovarian
LOX IMVI melanoma = tested on: LOX IMVI melanoma
NCI-H460 lung = tested on: NCI-H460 lung
BT-549 breast = tested on: BT-549 breast
CCRF-CEM leukemia = tested on: CCRF-CEM leukemia
UO-31 renal = tested on: UO-31 renal
MDA-MB-231 breast = tested on: MDA-MB-231 breast
KM12 colon = tested on: KM12 colon
HCC-2998 colon = tested on: HCC-2998 colon
NCI-H226 lung = tested on: NCI-H226 lung
SNB-19 CNS = tested on: SNB-19 CNS
SK-MEL-28 melanoma = tested on: SK-MEL-28 melanoma
SK-MEL-2 melanoma = tested on: SK-MEL-2 melanoma
HOP-92 NSCLC = tested on: HOP-92 NSCLC
MOLT-4 leukemia = tested on: MOLT-4 leukemia
SF-268 CNS = tested on: SF-268 CNS
OVCAR-8 ovarian = tested on: OVCAR-8 ovarian
A549 NSCLC = tested on: A549 NSCLC
HS 578T breast = tested on: HS 578T breast
ACHN renal = tested on: ACHN renal
TK-10 renal = tested on: TK-10 renal
UACC-62 melanoma = tested on: UACC-62 melanoma
SK-MEL-5 melanoma = tested on: SK-MEL-5 melanoma
NCI-H23 lung = tested on: NCI-H23 lung
SR leukemia = tested on: SR leukemia
SK-OV-3 ovarian = tested on: SK-OV-3 ovarian
EKVX NSCLC = tested on: EKVX NSCLC
A498 renal = tested on: A498 renal
SF-295 CNS = tested on: SF-295 CNS
MCF7 breast = tested on: MCF7 breast
OVCAR-5 ovarian = tested on: OVCAR-5 ovarian
DU-145 prostate = tested on: DU-145 prostate
HOP-62 NSCLC = tested on: HOP-62 NSCLC

For `CCOC(=O)c1cc(C(=O)c2cc(OC)c(OC)c(OC)c2)n2nc(C)ccc12`, the GI50 (HL-60(TB) leukemia) was 160 nM, the TGI (HL-60(TB) leukemia) was 588 nM and the GI50 (HT29 colon) was 133 nM. The TGI (HT29 colon) was > 100 µM, the GI50 (SF-539 CNS) was 130 nM and the TGI (SF-539 CNS) was 771 nM. For the same compound, the GI50 (OVCAR-4 ovarian) was 1720 nM, the TGI (OVCAR-4 ovarian) was > 100 µM and the GI50 (NCI-H522 lung) was 171 nM. The TGI (NCI-H522 lung) was > 100 µM, the GI50 (PC-3 prostate) was 93.9 nM and the TGI (PC-3 prostate) was > 100 µM. The GI50 (NCI/ADR-RES ovarian) was 123 nM, the TGI (NCI/ADR-RES ovarian) was 1930 nM and the GI50 (786-0 renal) was 335 nM. The TGI (786-0 renal) was > 100 µM, the GI50 (HCT-116 colon) was 164 nM and the TGI (HCT-116 colon) was > 100 µM. For the same compound, the GI50 (SW-620 colon) was 68.7 nM, the TGI (SW-620 colon) was > 100 µM and the GI50 (T-47D breast) was > 100 µM. The TGI (T-47D breast) was > 100 µM, the GI50 (IGROV1 ovarian) was 379 nM and the TGI (IGROV1 ovarian) was > 100 µM. The GI50 (HCT-15 colon) was 84.4 nM, the TGI (HCT-15 colon) was > 100 µM and the GI50 (U251 CNS) was 331 nM. For the same compound, the TGI (U251 CNS) was > 100 µM, the GI50 (SN12C renal) was 665 nM and the TGI (SN12C renal) was > 100 µM. It also gave a GI50 (OVCAR-3 ovarian) of 64.8 nM, a TGI (OVCAR-3 ovarian) of 1270 nM and a GI50 (LOX IMVI melanoma) of 498 nM. For the same compound, the TGI (LOX IMVI melanoma) was > 100 µM, the GI50 (NCI-H460 lung) was 133 nM and the TGI (NCI-H460 lung) was > 100 µM. The GI50 (BT-549 breast) was 878 nM, the TGI (BT-549 breast) was > 100 µM and the GI50 (CCRF-CEM leukemia) was 212 nM. The TGI (CCRF-CEM leukemia) was > 100 µM, the GI50 (UO-31 renal) was 452 nM and the TGI (UO-31 renal) was > 100 µM. For the same compound, the GI50 (MDA-MB-231 breast) was 524 nM, the TGI (MDA-MB-231 breast) was > 100 µM and the GI50 (KM12 colon) was 57.7 nM. The TGI (KM12 colon) was > 100 µM, the GI50 (HCC-2998 colon) was 493 nM and the TGI (HCC-2998 colon) was > 100 µM. The GI50 (NCI-H226 lung) was 45 µM, the TGI (NCI-H226 lung) was > 100 µM and the GI50 (SNB-19 CNS) was 420 nM. For the same compound, the TGI (SNB-19 CNS) was > 100 µM, the GI50 (SK-MEL-28 melanoma) was 12 µM and the TGI (SK-MEL-28 melanoma) was > 100 µM. The GI50 (SK-MEL-2 melanoma) was 495 nM, the TGI (SK-MEL-2 melanoma) was > 100 µM and the GI50 (HOP-92 NSCLC) was 3.52 µM. For the same compound, the TGI (HOP-92 NSCLC) was > 100 µM, the GI50 (MOLT-4 leukemia) was 396 nM and the TGI (MOLT-4 leukemia) was > 100 µM. The GI50 (SF-268 CNS) was 550 nM, the TGI (SF-268 CNS) was > 100 µM and the GI50 (OVCAR-8 ovarian) was 518 nM. The TGI (OVCAR-8 ovarian) was > 100 µM, the GI50 (A549 NSCLC) was 223 nM and the TGI (A549 NSCLC) was > 100 µM. The GI50 (HS 578T breast) was 190 nM, the TGI (HS 578T breast) was > 100 µM and the GI50 (ACHN renal) was 524 nM. For the same compound, the TGI (ACHN renal) was > 100 µM, the GI50 (TK-10 renal) was > 100 µM and the TGI (TK-10 renal) was > 100 µM. The GI50 (UACC-62 melanoma) was 61.5 nM, the TGI (UACC-62 melanoma) was > 100 µM and the GI50 (SK-MEL-5 melanoma) was 58.5 nM. The TGI (SK-MEL-5 melanoma) was 3.32 µM, the GI50 (NCI-H23 lung) was 418 nM and the TGI (NCI-H23 lung) was > 100 µM. The GI50 (SR leukemia) was 48.1 nM, the TGI (SR leukemia) was > 100 µM and the GI50 (SK-OV-3 ovarian) was 546 nM. The TGI (SK-OV-3 ovarian) was > 100 µM, the GI50 (EKVX NSCLC) was 479 nM and the TGI (EKVX NSCLC) was > 100 µM. For the same compound, the GI50 (A498 renal) was 76.2 nM, the TGI (A498 renal) was 931 nM and the GI50 (SF-295 CNS) was 65.7 nM. For the same compound, the TGI (SF-295 CNS) was > 100 µM, the GI50 (MCF7 breast) was 48.1 nM and the TGI (MCF7 breast) was > 100 µM. The GI50 (OVCAR-5 ovarian) was 472 nM, the TGI (OVCAR-5 ovarian) was > 100 µM and the GI50 (DU-145 prostate) was 391 nM. For the same compound, the TGI (DU-145 prostate) was > 100 µM, the GI50 (HOP-62 NSCLC) was 398 nM and the TGI (HOP-62 NSCLC) was > 100 µM.
